# US20210181179A1, “DIAGNOSIS AND TREATMENT OF IMMUNOTHERAPY-INDUCED NEUROTOXICITY” (MEMORIAL SLOAN KETTERING CANCER CENTER, priority 2018, published 2021)
# Columns and labels:
# CCF-STTG1 (astrocytoma) = assay: Net production of TRP metabolites in media samples, CCF-STTG1; assay type: cell-based, human
# From the text: (§1) Under physiological conditions in the brain, kynurenine metabolism is driven by microglial cells and astrocytes with preferential production of QUIN and KA respectively. […] This may have been due to T cells producing cytokines and/or intermediate metabolites that are further metabolized to QUIN by the cells. In order to identify specific factors that may lead to tryptophan-kynurenine pathway up-regulation for QUIN production, we tested a panel of cytokine and chemokines implicated in NTX and CRS. […] We initially evaluated the panel of the select factors individually (FIGS. 16 A-B). We selected several cytokines based on their effect on rate-limiting enzymes for QUIN production. These included IFNγ, TNF, […], CXCL10 and […]. These enzymes were selected based on their regulation of key enzymes, KMO and KYNU, which may lead to supraphysiological accumulation of QUIN. These factors were further evaluated, individually or in combination, on astrocytoma, microglial, and primary monocyte-derived macrophages for mRNA levels of kynurenine pathway enzymes and kynurenine metabolites production (FIG. 17).
# DOAY (medulloblastoma) = assay: Net production of TRP metabolites in media samples, DOAY; assay type: cell-based
# HCN2 (cortical neuron) = assay: Net production of TRP metabolites in media samples, HCN2; assay type: cell-based
# HMC3 (microglia) = assay: Net production of TRP metabolites in media samples, HMC3; assay type: cell-based, human
# From the text: as §1
# THP-1 (monocyte) = assay: Net production of TRP metabolites in media samples, THP-1; assay type: cell-based
# ALL3.1 (B-ALL) = assay: Net production of TRP metabolites in media samples, ALL3.1; assay type: cell-based
# BV173 (B-ALL) = assay: Net production of TRP metabolites in media samples, BV173; assay type: cell-based
# CCRF-SB (B-ALL) = assay: Net production of TRP metabolites in media samples, CCRF-SB; assay type: cell-based
# KARPAS231 (B-ALL) = assay: Net production of TRP metabolites in media samples, KARPAS231; assay type: cell-based
# RS4; 11 (B-ALL) = assay: Net production of TRP metabolites in media samples, RS4; 11; assay type: cell-based
# SUP-B15 (B-ALL) = assay: Net production of TRP metabolites in media samples, SUP-B15; assay type: cell-based
substance,measurement,setting,value
IFNγ: cytokine,Net production of TRP metabolites in media samples: 3-HK,CCF-STTG1 (astrocytoma),−12.24 ± 1.2
same,Net production of TRP metabolites in media samples: HAA,CCF-STTG1 (astrocytoma),8.88 ± 0.2
same,Net production of TRP metabolites in media samples: KA,CCF-STTG1 (astrocytoma),8.2 ± 2.9
same,Net production of TRP metabolites in media samples: KYN,CCF-STTG1 (astrocytoma),12049.08 ± 526
same,Net production of TRP metabolites in media samples: QUIN,CCF-STTG1 (astrocytoma),1.34 ± 16
same,Net production of TRP metabolites in media samples: 3-HK,DOAY (medulloblastoma),−13.38 ± 1.5
same,Net production of TRP metabolites in media samples: HAA,DOAY (medulloblastoma),10.66 ± 0.9
same,Net production of TRP metabolites in media samples: KA,DOAY (medulloblastoma),11.08 ± 0.9
same,Net production of TRP metabolites in media samples: KYN,DOAY (medulloblastoma),6757.9 ± 129.3
same,Net production of TRP metabolites in media samples: QUIN,DOAY (medulloblastoma),34.8 ± 7^
same,Net production of TRP metabolites in media samples: 3-HK,HCN2 (cortical neuron),−4.84 ± 8.3
same,Net production of TRP metabolites in media samples: HAA,HCN2 (cortical neuron),6.34 ± 1.1
same,Net production of TRP metabolites in media samples: KA,HCN2 (cortical neuron),6.48 ± 4.8
same,Net production of TRP metabolites in media samples: KYN,HCN2 (cortical neuron),1597.26 ± 77
same,Net production of TRP metabolites in media samples: QUIN,HCN2 (cortical neuron),25.26 ± 27.11
same,Net production of TRP metabolites in media samples: 3-HK,HMC3 (microglia),20.8 ± 20.5
same,Net production of TRP metabolites in media samples: HAA,HMC3 (microglia),0.76 ± 3.3
same,Net production of TRP metabolites in media samples: KA,HMC3 (microglia),48.46 ± 25.8
same,Net production of TRP metabolites in media samples: KYN,HMC3 (microglia),45327.9 ± 11654
same,Net production of TRP metabolites in media samples: QUIN,HMC3 (microglia),55.88 ± 34^
same,Net production of TRP metabolites in media samples: 3-HK,THP-1 (monocyte),1.78 ± 1.9
same,Net production of TRP metabolites in media samples: KA,THP-1 (monocyte),−7.14 ± 5.2
same,Net production of TRP metabolites in media samples: KYN,THP-1 (monocyte),2593.4 ± 153.7
same,Net production of TRP metabolites in media samples: QUIN,THP-1 (monocyte),−26.4 ± 68^
same,Net production of TRP metabolites in media samples: 3-HK,ALL3.1 (B-ALL),8.76 ± 7.8
same,Net production of TRP metabolites in media samples: KA,ALL3.1 (B-ALL),−3.32 ± 3.4
same,Net production of TRP metabolites in media samples: KYN,ALL3.1 (B-ALL),55.94 ± 132
same,Net production of TRP metabolites in media samples: QUIN,ALL3.1 (B-ALL),40.94 ± 140.3
same,Net production of TRP metabolites in media samples: 3-HK,BV173 (B-ALL),1.06 ± 2.6
same,Net production of TRP metabolites in media samples: KA,BV173 (B-ALL),−4.58 ± 5^
same,Net production of TRP metabolites in media samples: KYN,BV173 (B-ALL),46.72 ± 51.1
same,Net production of TRP metabolites in media samples: QUIN,BV173 (B-ALL),6.54 ± 42.2
same,Net production of TRP metabolites in media samples: 3-HK,CCRF-SB (B-ALL),1.9 ± 7.3
same,Net production of TRP metabolites in media samples: HAA,CCRF-SB (B-ALL),5.9 ± 0.5
same,Net production of TRP metabolites in media samples: KA,CCRF-SB (B-ALL),−8.3 ± 5.5
same,Net production of TRP metabolites in media samples: KYN,CCRF-SB (B-ALL),410.1 ± 79.1
same,Net production of TRP metabolites in media samples: QUIN,CCRF-SB (B-ALL),−53.44 ± 37.8
same,Net production of TRP metabolites in media samples: 3-HK,KARPAS231 (B-ALL),90.74 ± 9.3
same,Net production of TRP metabolites in media samples: HAA,KARPAS231 (B-ALL),244.46 ± 24.4
same,Net production of TRP metabolites in media samples: KA,KARPAS231 (B-ALL),−9.22 ± 3.8
same,Net production of TRP metabolites in media samples: KYN,KARPAS231 (B-ALL),1247.28 ± 62.2
same,Net production of TRP metabolites in media samples: QUIN,KARPAS231 (B-ALL),−26.02 ± 27.3
same,Net production of TRP metabolites in media samples: 3-HK,RS4; 11 (B-ALL),0.12 ± 1.4
same,Net production of TRP metabolites in media samples: KA,RS4; 11 (B-ALL),−2.8 ± 7.2
same,Net production of TRP metabolites in media samples: KYN,RS4; 11 (B-ALL),26.58 ± 19.7
same,Net production of TRP metabolites in media samples: QUIN,RS4; 11 (B-ALL),−4.26 ± 37.4
same,Net production of TRP metabolites in media samples: 3-HK,SUP-B15 (B-ALL),18.5 ± 14.8
same,Net production of TRP metabolites in media samples: HAA,SUP-B15 (B-ALL),6.92 ± 0.9
same,Net production of TRP metabolites in media samples: KA,SUP-B15 (B-ALL),−7.42 ± 3.2
same,Net production of TRP metabolites in media samples: KYN,SUP-B15 (B-ALL),299.52 ± 209^
same,Net production of TRP metabolites in media samples: QUIN,SUP-B15 (B-ALL),−70 ± 31
Il6: cytokine,Net production of TRP metabolites in media samples: 3-HK,CCF-STTG1 (astrocytoma),−8.16 ± 2.2
same,Net production of TRP metabolites in media samples: HAA,CCF-STTG1 (astrocytoma),11 ± 0.4
same,Net production of TRP metabolites in media samples: KA,CCF-STTG1 (astrocytoma),5.16 ± 1.1
same,Net production of TRP metabolites in media samples: KYN,CCF-STTG1 (astrocytoma),4385.94 ± 43.3
same,Net production of TRP metabolites in media samples: QUIN,CCF-STTG1 (astrocytoma),17.06 ± 11^
same,Net production of TRP metabolites in media samples: 3-HK,DOAY (medulloblastoma),−11.68 ± 1.2
same,Net production of TRP metabolites in media samples: HAA,DOAY (medulloblastoma),11.14 ± 0.8
same,Net production of TRP metabolites in media samples: KA,DOAY (medulloblastoma),6.16 ± 4.2
same,Net production of TRP metabolites in media samples: KYN,DOAY (medulloblastoma),41.5 ± 21.6
same,Net production of TRP metabolites in media samples: QUIN,DOAY (medulloblastoma),29.66 ± 29.4
same,Net production of TRP metabolites in media samples: 3-HK,HCN2 (cortical neuron),4.96 ± 0.8
same,Net production of TRP metabolites in media samples: HAA,HCN2 (cortical neuron),5.48 ± 0.8
same,Net production of TRP metabolites in media samples: KA,HCN2 (cortical neuron),0.86 ± 2.1
same,Net production of TRP metabolites in media samples: KYN,HCN2 (cortical neuron),−2.08 ± 19^
same,Net production of TRP metabolites in media samples: QUIN,HCN2 (cortical neuron),0.94 ± 12.9
same,Net production of TRP metabolites in media samples: 3-HK,HMC3 (microglia),8.44 ± 18
same,Net production of TRP metabolites in media samples: HAA,HMC3 (microglia),0.12 ± 2.4
same,Net production of TRP metabolites in media samples: KA,HMC3 (microglia),6.3 ± 3.8
same,Net production of TRP metabolites in media samples: KYN,HMC3 (microglia),545.08 ± 313^
same,Net production of TRP metabolites in media samples: QUIN,HMC3 (microglia),61.04 ± 23.7
same,Net production of TRP metabolites in media samples: 3-HK,THP-1 (monocyte),0.5 ± 1.2
same,Net production of TRP metabolites in media samples: KA,THP-1 (monocyte),−6.74 ± 6.2
same,Net production of TRP metabolites in media samples: KYN,THP-1 (monocyte),176.36 ± 33
same,Net production of TRP metabolites in media samples: QUIN,THP-1 (monocyte),−5.14 ± 52.9
same,Net production of TRP metabolites in media samples: 3-HK,ALL3.1 (B-ALL),1.48 ± 5.3
same,Net production of TRP metabolites in media samples: KA,ALL3.1 (B-ALL),−2.36 ± 6^
same,Net production of TRP metabolites in media samples: KYN,ALL3.1 (B-ALL),95.16 ± 123.3
same,Net production of TRP metabolites in media samples: QUIN,ALL3.1 (B-ALL),8.66 ± 36.5
same,Net production of TRP metabolites in media samples: 3-HK,BV173 (B-ALL),12.32 ± 11.8
same,Net production of TRP metabolites in media samples: KA,BV173 (B-ALL),−3 ± 3
same,Net production of TRP metabolites in media samples: KYN,BV173 (B-ALL),244.92 ± 172.4
same,Net production of TRP metabolites in media samples: QUIN,BV173 (B-ALL),13.06 ± 15.6
same,Net production of TRP metabolites in media samples: 3-HK,CCRF-SB (B-ALL),27.64 ± 22.5
same,Net production of TRP metabolites in media samples: HAA,CCRF-SB (B-ALL),9.34 ± 2.1
same,Net production of TRP metabolites in media samples: KA,CCRF-SB (B-ALL),−6.88 ± 1.5
same,Net production of TRP metabolites in media samples: KYN,CCRF-SB (B-ALL),438.12 ± 308.6
same,Net production of TRP metabolites in media samples: QUIN,CCRF-SB (B-ALL),−51.14 ± 13 ^
same,Net production of TRP metabolites in media samples: 3-HK,KARPAS231 (B-ALL),1.48 ± 2.2
same,Net production of TRP metabolites in media samples: HAA,KARPAS231 (B-ALL),8.68 ± 1.5
same,Net production of TRP metabolites in media samples: KA,KARPAS231 (B-ALL),−7.58 ± 4.2
same,Net production of TRP metabolites in media samples: KYN,KARPAS231 (B-ALL),−77.44 ± 27.4
same,Net production of TRP metabolites in media samples: QUIN,KARPAS231 (B-ALL),−37.78 ± 29.5
same,Net production of TRP metabolites in media samples: 3-HK,RS4; 11 (B-ALL),−1.36 ± 1.1
same,Net production of TRP metabolites in media samples: KA,RS4; 11 (B-ALL),−6.52 ± 2.3
same,Net production of TRP metabolites in media samples: KYN,RS4; 11 (B-ALL),−3.36 ± 38.7
same,Net production of TRP metabolites in media samples: QUIN,RS4; 11 (B-ALL),16.28 ± 63.8
same,Net production of TRP metabolites in media samples: 3-HK,SUP-B15 (B-ALL),16.58 ± 13.5
same,Net production of TRP metabolites in media samples: HAA,SUP-B15 (B-ALL),6.44 ± 0.8
same,Net production of TRP metabolites in media samples: KA,SUP-B15 (B-ALL),−6.4 ± 3
same,Net production of TRP metabolites in media samples: KYN,SUP-B15 (B-ALL),309 ± 182
same,Net production of TRP metabolites in media samples: QUIN,SUP-B15 (B-ALL),−65.6 ± 16^
